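Interpolation was linear, between the two tested concentrations surrounding the appropriate level; five concentrations were tested over 48 hours in 96-well plates. Abbreviation: GI50, concentration required for 50% inhibition of growth. TGI is the concentration that stops growth completely.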 Where a SMILES comes first, the peptide text is derived from it. The star is where a group is joined. Palmitoyl = CCCCCCCCCCCCCCCC(=O)*
Key:
Assay in all cases: growth of human tumour cells (NCI), 48 h
[1] = tested on: HCC-2998 colon
[2] = tested on: HCT-15 colon
[3] = tested on: HOP-62 NSCLC
[4] = tested on: LOX IMVI melanoma
[5] = tested on: MALME-3M melanoma
[6] = tested on: MCF7 breast
[7] = tested on: SK-MEL-2 melanoma
[8] = tested on: UACC-257 melanoma
[9] = tested on: UACC-62 melanoma
[10] = tested on: T-47D breast

Structure (SMILES) | TGI [1] [µM] | TGI [2] [µM] | GI50 [3] [µM] | TGI [3] [µM] | TGI [4] [µM] | TGI [5] [µM] | TGI [6] [µM] | TGI [7] [µM] | TGI [8] [µM] | TGI [9] [µM] | TGI [10] [µM] | GI50 [1] [µM] | GI50 [5] [µM] | GI50 [6] [µM] | GI50 [7] [µM] | GI50 [10] [µM] | GI50 [8] [µM]
C=CC1(C)CC(=O)C2(O)C(C)(O1)C(OC(C)=O)C(O)C1C(C)(C)CCC(O)C12C (stereo unspecified) | > 150 | > 150 | > 83.2 | > 150 | > 150 | > 150 | > 115 | > 150 | > 150 | 101 |  |  |  |  |  |  | 
Cc1cc(N(C)C)c2ccccc2[n+]1CCCCCCCCCC[n+]1c(C)cc(N(C)C)c2ccccc21 | 13.5 | 14.4 |  |  | 3.24 | > 41.6 | 26.3 | 4.98 | 2.3 | 3.35 | 15.2 |  |  |  |  |  | 
CN1Cc2c(nc(-c3ccccc3)c[n+]2[O-])N(C)C1 | > 100 | > 100 |  | > 100 | > 100 | > 100 |  | > 100 | > 100 | > 100 |  |  |  |  |  |  | 
C=C(CN(C)C)C(=O)c1ccc(C(=O)C(=C)CN(C)C)cc1 | > 100 | > 100 |  |  | > 100 | > 100 |  | > 100 | > 100 | > 100 |  |  |  |  |  |  | 
CO/N=C(/C(=O)OC)c1ccccc1COc1ccccc1C(F)(F)F | > 100 | > 100 |  | > 100 |  | 47.2 | > 100 | 73.2 | 88.7 | > 100 | > 100 |  |  |  |  |  | 
N#Cc1sc2c(c1OC(=O)c1ccc(C(F)(F)F)cc1)c(=O)n(-c1ccccc1)c(=S)n2-c1ccccc1 | > 100 | 80.7 |  | > 100 | 59.9 | 84.4 | > 100 |  | > 100 | 50.9 | > 100 |  |  |  |  |  | 
Cc1cc(C)nc(NC(=S)Nc2ccc([N+](=O)[O-])cc2)c1 | > 100 | > 100 |  | > 100 | > 100 |  | > 100 | > 100 | > 100 | > 100 | > 100 |  |  |  |  |  | 
CCOC(=O)/C(C(C)=O)=C(\OC(C)=O)c1ccncc1C(=O)O | > 100 | > 100 |  |  | > 100 | > 100 | > 100 | > 100 | > 100 | > 100 | > 100 |  |  |  |  |  | 
Nc1ncc2c(n1)-c1ccccc1OC2N1CCCC1 (stereo unspecified) |  | > 100 |  | > 100 | > 100 | > 100 | > 100 | > 100 | > 100 | > 100 |  |  |  |  |  |  | 
O[C@H]1[C@H](O)[C@@H](O)CN2CC[C@H](O)[C@H]12 | > 100 | > 100 |  | > 100 | > 100 | > 100 | > 100 | > 100 | > 100 | > 100 |  |  |  |  |  |  | 
O=C(OCC(Cl)(Cl)Cl)N1CC[C@H](C2CCCCC2)C1 | 34.3 | 34.8 |  | 32.8 | 41.1 |  | 34.9 | 30.4 | 38.7 | 52.9 | 35.1 |  |  |  |  |  | 
Clc1ccc(C=NC23CC4CC(CC(C4)C2)C3)c(Cl)c1 | > 10 | > 10 |  | > 10 | > 10 | > 10 |  | > 10 | > 10 | > 10 | > 10 |  |  |  |  |  | 
C=C(C)CNCCN |  | > 100 |  | > 100 | > 100 | > 100 |  | > 100 | > 100 | > 100 | > 100 |  |  |  |  |  | 
CCCCCCCCCCCCCCCC(=O)N1CCCC1C(=O)NCC(=O)NC(Cc1ccccc1)C(=O)N1CCCC1C(=O)NC(CO)C(=O)NC(Cc1ccc(O)cc1)C(=O)NC(CCCCN)C(=O)NC(CC(C)C)C(=O)NC(CCCN=C(N)N)C(=O)N1CCCC1C(=O)NCC(N)=O (stereo unspecified) (Palmitoyl-PGFPSYKLRPG-NH2; configuration not given here) | 24.1 |  | 22.9 | 48 |  | 5.73 | 35.3 | > 100 | 31 |  | 48.5 | 10.4 | 0.45 | 15 | 46.2 | 17.9 | 14.6
CC12c3c4ccc(C=O)c3Oc3ccc(C=O)c(c31)Oc1ccc(C=O)c(c12)O4 |  | > 25 |  | > 25 | > 25 | > 25 | > 25 | > 25 | > 25 | > 25 | > 25 |  |  |  |  |  | 
Cc1ccnc(NC(=S)Nc2ccc([N+](=O)[O-])cc2)c1 | > 100 | > 100 |  | > 100 | > 100 |  | > 100 | > 100 | > 100 | > 100 | > 100 |  |  |  |  |  | 
O=C(CN1C(=O)CC(c2ccccc2)(c2ccccc2)C1=O)N1CCN(CCO)CC1 | > 100 | > 100 |  | > 100 | > 100 |  | > 100 | > 100 | > 100 | > 100 | > 100 |  |  |  |  |  | 
COc1ccc2oc(=N)c(C(=O)Nc3ccccc3)cc2c1 |  | > 100 |  | 41.7 | > 100 | 53.2 | 33.2 | 37.4 | > 100 |  | > 100 |  |  |  |  |  | 
O=C1c2cccc3cccc(c23)C(=O)N1CCCNCCCCNCCCNCCCN1C(=O)c2cccc3cccc(c23)C1=O | 1.86 | 28.1 |  | 3.6 |  | 1.25 | 0.599 | 2.75 | 3.06 | 1.6 |  |  |  |  |  |  | 
C=C(C)[C@H]1C2=CC(C(=O)OC)=C(C[C@H](C(=C)C)[C@@H](O)[C@@H](O)C3=C[C@H]1OC3=O)O2 |  | > 100 |  | > 100 | > 100 | > 100 | > 100 | > 100 | > 100 | > 100 | > 100 |  |  |  |  |  | 
CN1CC[C@]2(c3cccc(O)c3)CC(=O)/C(=C/c3ccccc3)[C@@H]1C2 | 7.16 | 4.93 |  | 12.7 | 4.71 | 10.4 | 6.06 | 13 | 11.7 |  |  |  |  |  |  |  | 
COc1cc(C2c3cc4c(cc3[C@@H](Nc3ccccc3)C3COC(=O)[C@H]23)OCO4)cc(OC)c1O (stereo partly specified) | 3.35 | 2.43 |  | 0.671 | 3.38 | 8.65 | > 41.2 | 6.97 | 4.27 | 2.9 |  |  |  |  |  |  | 
